# Laboratory results published in patent publication US6063803A, “Octahydropyrrolo-[3,4-c]carbazoles useful as analgesic agents” (Ortho-McNeil Pharmaceutical, Inc., priority 1999, dated 2000).
# pKi: −log10 of the molar value.
# Assays:
# [1] = rat air-induced writhing (abdominal constriction) assay; assay type: in vivo, rats; conditions: rat air-induced writhing
# Procedure: The analgesic activity was determined in another model using rats as the test animal. The procedure was essentially described by P. VonVoightlander et al. in Air-induced Writhing, a Rapid Broad Spectrum Assay for Analgesics, Drug Dev. Res., 2, 577-81, (1982). The test compound or vehicle was administered p.o. (2 mL/kg) and after 30 min, the animals received an i.p. injection of air (10 mL). The animals were placed into individual observation chambers and observed for 30 min for the occurrence of abdominal constriction as defined above. The percent inhibition of this response was calculated as follows. The % inhibition of response, i.e., % analgesia is equal to the number nonresponding drug-treated animals×100 divided by the number of animals in the group. […] This effect lasted for 2-3 hours.
# [2] = mouse acetylcholine bromide-induced abdominal constriction assay; assay type: in vivo, mice (Male, Cr1:CD-1)
# Procedure: The analgesic activity of compounds of Formula I were determined in the following in vivo assay. The procedure was run essentially as described by H. Collier et al. in B. J. Pharmacol. Chemother., 32: 295-310, 1968, with minor modifications. Mice (Male, Cr1:CD-1, Charles River Laboratories) were used in the following example. The test drugs or appropriate vehicle were administered orally (10 mL/kg, p.o.) or subcutaneously (10 mL/kg, s.c.) and 30 minutes later the animal received an intraperitoneal (i.p.) injection of 5.5 mg/kg acetylcholine bromide. The mice were then placed in glass bell jars and observed for a ten minute observation period for the occurrence of an abdominal constriction response (defined as a wave of constriction and elongation passing caudally along the abdominal wall, accompanied by a twisting of the trunk and followed by extension of the hind limbs). The percent inhibition of this response to antinociceptive stimulus (equated to % analgesia) was calculated as follows: The % inhibition of response, i.e., % analgesia is equal to the number of non-responding drug-treated animals×100 divided by the number of animals in the group.
# The ED50 values and their 95% fiducial limits were determined by a computer assisted probit analysis. […] This effect lasted for 4-5 hours.
# Table A lists the % inhibition for some compounds of the invention. Unless otherwise indicated the compounds were administered s.c. at 30 mg/kg. [drawing 63]
# [3] = mouse hot plate assay (48° C.); assay type: in vivo, mice; conditions: mouse hot plate 48° C.
# Procedure: The test was essentially described by N. Eddy and D. Leimbach, Synthetic Analgesics II Dithienylbutenyl- and Dithienylbutylamines, J. Pharmacol. Exp. Ther., 107, 385-93 (1953) and J. O'Callaghan and S. Holtzman, Qualification of the Analgesic Activity of Narcotic Antagonists by a Modified Hot-Plate Procedure, J. Pharmacol. Exp. Ther, 192, 497-505 (1975), with minor modifications. Mice were placed on a heated surface (48° C.) and the time interval (seconds) between placement and a shaking, licking, or tucking of the hind paw was recorded as the predrug latency response. This procedure was repeated 30 minutes after the administration of a test compound (p.o., 10 mL/kg). The percent maximum possible antinociceptive effect (% MPE) was determined using the following formula: % MPE=100×(Test latency-Predrug latency)/(Cutoff time-Predrug Latency), using the predrug latency of each animal and cutoff time established to prevent injury to the animal. The cutoff time was 90s.
# The ED50 value and 95% confidence intervals were determined using a computer-assisted linear regression analysis of the dose-response curve, including an analysis of variance test for linearity. Oral dosing of Compound 58 produced an analgesic effect after 15 min. This effect lasted for one hour.
# α2-adrenergic receptor = target: T1, α2-adrenergic receptor (Rattus norvegicus, UniProt P22909); assay: α2-adrenergic receptor binding (3H-para-aminoclonidine, rat cortex synaptic membranes); design: species or system rat (Wistar); conditions: 25° C., 20 min
# T1 construct: aliquots of the synaptic membrane fraction, the ligand; from tissue; host or cells: cerebral cortex synaptic membranes of male Wistar rats
# T1 sequence (P22909 1-465): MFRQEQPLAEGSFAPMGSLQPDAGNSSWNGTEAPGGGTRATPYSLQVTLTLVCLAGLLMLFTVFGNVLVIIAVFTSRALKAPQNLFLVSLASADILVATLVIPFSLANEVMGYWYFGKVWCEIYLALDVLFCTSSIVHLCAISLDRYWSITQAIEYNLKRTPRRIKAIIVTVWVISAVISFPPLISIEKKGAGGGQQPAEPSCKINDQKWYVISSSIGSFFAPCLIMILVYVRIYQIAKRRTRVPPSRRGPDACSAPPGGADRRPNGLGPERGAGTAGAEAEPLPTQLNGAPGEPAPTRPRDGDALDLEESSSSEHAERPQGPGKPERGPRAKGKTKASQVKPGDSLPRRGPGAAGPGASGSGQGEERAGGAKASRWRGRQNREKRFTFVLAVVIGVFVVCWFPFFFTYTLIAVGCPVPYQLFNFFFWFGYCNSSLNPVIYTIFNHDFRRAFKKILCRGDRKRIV
# Procedure: The α2 -adrenergic activity of the compounds was determined by the following in vitro assay. Male, Wistar rats (150-250 g, VAF, Charles River, Kingston, N.Y.) were sacrificed by cervical dislocation and their brains removed and immediately placed in ice cold HEPES buffered sucrose. The cortex was dissected out and homogenized in 20 volumes of HEPES sucrose in a Teflon®-glass homogenizer. The homogenate was centrifuged at 1000×g for 10 min, and the resulting supernatant centrifuged at 42,000×g for 10 min. The resulting pellet was resuspended in 30 volumes of 3 mM potassium phosphate buffer, pH 7.5, preincubated at 25° C. for 30 min and recentrifuged. The resulting pellet was resuspended as described above and used for the receptor binding assay. Incubation was performed in test tubes containing phosphate buffer, 2.5 mM MgCl2, aliquots of the synaptic membrane fraction, the ligand ^3 H-para-aminoclonidine and test drug at 25° C. for 20 min. The incubation was terminated by filtration of the tube contents through glass fiber filter sheets. The sheets were washed with 10 mM HEPES buffer and the adhering radioactivity was quantified by liquid scintillation spectrometry.
# Dose-response data are analyzed with LIGAND, a nonlinear curve fitting program designed specifically for the analysis of ligand binding data. […]
# [4] = mouse abdominal constriction, oral dosing
compound,measurement,setting,value
"CN1CC2CCc3[nH]c4ccccc4c3C2C1 (single isomer, unassigned) [Compound 58]",ED50,"[1]; po, p.o., read-out: ED50",23.1 mg/kg
same,"analgesic effect observed, time after oral dosing",[1]; oral dosing,30 min
same,duration of analgesic effect,[1]; oral dosing,2 to 3 h
same,responders at 30 mg/kg,"[2]; Mus musculus, 0.5 h, 30 mg/kg po, acetylcholine bromide 5.5 mg/kg i.p. 30 min later, read-out: % inhibition @ 30 mg/kg (po)",100%
same,"analgesic effect observed, time after oral dosing",[2]; [4],15 min
same,duration of analgesic effect,[2]; [4],4 to 5 h
same,ED50,"[2]; mouse acetylcholine abdominal constriction, probit analysis, read-out: ED50",5.8 mg/kg
same,"analgesic effect, time after oral dosing",[3]; oral dosing,15 min
same,ED50,"[3]; po, 0.5 h, p.o., cutoff 90s, read-out: ED50",14.2 mg/kg
same,pKi,α2-adrenergic receptor,8.03
